# Assay results taken from patent US11034718B2, “C-3 novel triterpenone with C-17 reverse amide derivatives as HIV inhibitors” (HETERO LABS LIMITED, priority 2015, dated 2021).
# Like-named read-outs stand apart in the source and are kept apart here.
# Legend:
# [1] = Single dose oral pharmacokinetic study; type: in vivo; conditions: mouse; Mice oral PK @30 mg/kg; plasma
# Protocol: Example 80: Evaluation of Compounds Single Dose Oral Pharmacokinetic Study
# The test item was administered through oral route to animals (rat/mice) at 30 mg/kg dose in a suitable vehicle (10% Solutol+20% PEG) at 10 ml/kg dose volume. Blood samples (˜50 μL at each time point) were collected from retro-orbital plexus using K3 EDTA as anticoagulant in eppendorf tubes at defined time intervals 30 minutes, 1 hour, 2 hour, 4 hour, 8 hour, 24 hour & 48 hour under light ether anaesthesia. The samples were centrifuged at 3500×g to separate plasma and stored at −80° C. until analysis. Plasma 25 μl for Mice were processed as per described in sample preparation.
# Standard solutions of the test compound 1 mg/mL solutions were prepared in DMSO and further dilutions were made in methanol. The calibration curve samples for LCMSMS analysis were prepared by spiking 25 μl of Mice plasma with 2.5 μl and of the appropriate working standard solution to obtain final concentrations 0.078, 0.156, 0.312, 0.625, 1.25, 2.5, 5, 10, 20 & 40 μg/ml. To the test compound plasma extraction was carried out using Acetonitrile precipitation. After reconstitution with solvent (50% Acetonitrile in Buffer) samples were analyzed by LCMSMS to get the concentrations to calculate PK Parameters.
# HIV-1 pNL4-3 V7A = test: Antiviral activity against pNL4-3/V7A strain in MT4 cells (p24 estimation); type: cell-based; conditions: Human immunodeficiency virus 1, MT4, 96 h, read-out: pNL4-3 V7A IC50
# Summary of the method: (§1)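 MT4 cells infected with HIV-1 pNL4-3 WT or V7A (defined TCID50, 1.5 h, 37° C), plated at 3×10^4 cells/well with test compound, final DMSO ≤1%. After 4 days' culture, p24 in supernatant aliquots measured by kit.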
# HIV-1 pNL4-3 WT = test: Antiviral activity against pNL4-3/WT strain in MT4 cells (p24 estimation); type: cell-based; conditions: Human immunodeficiency virus 1, MT4, 96 h, read-out: pNL4-3 WT IC50
# Summary of the method: as §1
# HIV-1 strain 92HT599 = test: Antiviral activity against HIV-1 strain 92HT599 in MT2 cells (p24 estimation); type: cell-based; conditions: HIV-1 92HT599, ~96 hours
# Summary of the method: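 Percent inhibition versus vehicle controls came from p24 quantified in supernatant aliquots. These were taken after ~96 h incubation of compound (DMSO ≤1%) with MT2 cells infected at 10 TCID50/30,000 cells.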
smiles,measurement,setting,value
"CC(C)C1=C2[C@H]3CC[C@@H]4[C@@]5(C)CC[C@H](OC(=O)[C@H]6C[C@@H](C(=O)O)C6(C)C)C(C)(C)[C@@H]5CC[C@@]4(C)[C@]3(C)CC[C@@]2(NC(=O)C(C)(C)NS(=O)(=O)c2ccc(Cl)cc2)CC1=O [Example 65, (1R,3S)-3-((((3aR,5aR,5bR,7aR,9S,11aR,11bR,13aS)-3a-(2-((4-chlorophenyl)sulfonamido)-2-methylpropanamido)-1-isopropyl-5a,5b,8,8,11a-pentamethyl-2-oxo-3,3a,4,5,5a,5b,6,7,7a,8,9,10,11,11a,11b,12,13,13a-octadecahydro-2H-cyclopenta[a]chrysen-9-yl)oxy)carbonyl)-2,2-dimethylcyclobutane-1-carboxylic acid]",AUC(0-t),[1],145 µg·h/mL
same,Cmax,[1],7380 ng/mL
same,IC50,HIV-1 pNL4-3 V7A,> 50 nM
same,IC50,HIV-1 pNL4-3 WT,> 10 nM
same,IC50,"HIV-1 strain 92HT599; Human immunodeficiency virus 1, 0% serum binding assay, read-out: IC50 0% serum",< 3 nM
same,IC50,"HIV-1 strain 92HT599; Human immunodeficiency virus 1, 40% serum binding assay, read-out: IC50 40% serum",< 50 nM
